# Data published in ChEMBL document CHEMBL4261613, “Discovery of a potent orally bioavailable retinoic acid receptor-related orphan receptor-gamma-t (RORγt) inhibitor, S18-000003” (Bioorg Med Chem Lett, 2018).
# Assays:
# [1] = Stability in human liver microsomes assessed as parent compound remaining after 2 hrs by LC-MS/MS analysis; format: ADME, microsome; conditions: read-out: Stability
# [2] = Solubility of the compound in KH2PO4/Na2HPO4 buffer at pH 6.8 by shake-flask method; format: physicochemical
# [3] = biological target: T1, Oxysterols receptor LXR-alpha (Homo sapiens, UniProt Q13133); assay: Transrepression of recombinant human GAL4-DBD fused LXRalpha LBD expressed in HEK293 cells after 20 hrs by luciferase reporter gene assay; format: cell-based
# T1 sequence (Q13133 whole entry): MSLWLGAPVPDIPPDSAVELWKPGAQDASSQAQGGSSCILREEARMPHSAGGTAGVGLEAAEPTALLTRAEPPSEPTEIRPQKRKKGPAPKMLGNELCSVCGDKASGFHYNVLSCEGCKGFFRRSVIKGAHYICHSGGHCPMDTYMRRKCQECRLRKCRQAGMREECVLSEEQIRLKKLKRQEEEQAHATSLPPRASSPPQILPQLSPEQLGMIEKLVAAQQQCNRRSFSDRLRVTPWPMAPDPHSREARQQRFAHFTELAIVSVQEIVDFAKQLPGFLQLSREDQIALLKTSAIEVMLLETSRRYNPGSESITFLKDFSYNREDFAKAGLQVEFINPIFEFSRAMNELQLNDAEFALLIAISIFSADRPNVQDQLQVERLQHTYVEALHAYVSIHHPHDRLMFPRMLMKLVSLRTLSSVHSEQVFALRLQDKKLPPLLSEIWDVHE
# [4] = biological target: T2, Nuclear receptor ROR-alpha (Homo sapiens, UniProt P35398); assay: Displacement of [3H]T0901317 from recombinant human GST-fused RORalpha LBD after 1 to 4 hrs by microbeta scintillation counting method
# T2 sequence (P35398 whole entry): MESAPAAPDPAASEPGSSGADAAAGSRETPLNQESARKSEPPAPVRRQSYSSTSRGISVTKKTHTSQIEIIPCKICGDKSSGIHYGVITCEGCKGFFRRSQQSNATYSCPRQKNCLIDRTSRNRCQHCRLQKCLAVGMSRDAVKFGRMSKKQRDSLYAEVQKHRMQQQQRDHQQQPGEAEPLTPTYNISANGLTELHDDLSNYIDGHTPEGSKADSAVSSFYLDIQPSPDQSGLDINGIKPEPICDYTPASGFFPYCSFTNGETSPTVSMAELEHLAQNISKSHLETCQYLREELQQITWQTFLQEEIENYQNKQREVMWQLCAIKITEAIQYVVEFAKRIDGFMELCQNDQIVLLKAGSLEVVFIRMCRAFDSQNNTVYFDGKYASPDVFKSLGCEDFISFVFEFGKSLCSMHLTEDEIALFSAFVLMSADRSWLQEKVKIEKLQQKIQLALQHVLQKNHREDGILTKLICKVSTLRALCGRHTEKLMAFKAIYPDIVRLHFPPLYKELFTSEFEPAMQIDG
# [5] = Solubility of the compound in NaCl/HCl buffer at pH 1.2 by shake-flask method; format: physicochemical
# [6] = Stability in rat liver microsomes assessed as parent compound remaining after 2 hrs by LC-MS/MS analysis; format: ADME, microsome; conditions: read-out: Stability
# [7] = biological target: T3, Nuclear receptor ROR-beta (Homo sapiens, UniProt Q92753); assay: Transrepression of recombinant human GAL4-DBD fused RORbeta LBD expressed in HEK293 cells after 20 hrs by luciferase reporter gene assay; format: cell-based
# T3 sequence (Q92753 whole entry): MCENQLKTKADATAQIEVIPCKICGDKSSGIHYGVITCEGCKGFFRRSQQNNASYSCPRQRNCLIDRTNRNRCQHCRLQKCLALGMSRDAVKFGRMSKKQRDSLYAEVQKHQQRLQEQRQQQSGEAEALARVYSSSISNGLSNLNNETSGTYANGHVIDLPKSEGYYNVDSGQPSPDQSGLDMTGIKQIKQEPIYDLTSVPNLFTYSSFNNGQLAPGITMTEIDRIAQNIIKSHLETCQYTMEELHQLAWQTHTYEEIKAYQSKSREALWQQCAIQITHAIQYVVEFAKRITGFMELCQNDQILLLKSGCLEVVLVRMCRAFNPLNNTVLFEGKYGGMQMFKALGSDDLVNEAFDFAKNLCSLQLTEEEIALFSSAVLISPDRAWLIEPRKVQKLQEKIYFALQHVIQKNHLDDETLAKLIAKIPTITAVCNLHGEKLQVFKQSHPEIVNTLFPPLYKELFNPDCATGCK
# [8] = biological target: T4, Oxysterols receptor LXR-beta (Homo sapiens, UniProt P55055); assay: Transrepression of recombinant human GAL4-DBD fused LXRbeta LBD expressed in HEK293 cells after 20 hrs by luciferase reporter gene assay; format: cell-based
# T4 sequence (P55055 whole entry): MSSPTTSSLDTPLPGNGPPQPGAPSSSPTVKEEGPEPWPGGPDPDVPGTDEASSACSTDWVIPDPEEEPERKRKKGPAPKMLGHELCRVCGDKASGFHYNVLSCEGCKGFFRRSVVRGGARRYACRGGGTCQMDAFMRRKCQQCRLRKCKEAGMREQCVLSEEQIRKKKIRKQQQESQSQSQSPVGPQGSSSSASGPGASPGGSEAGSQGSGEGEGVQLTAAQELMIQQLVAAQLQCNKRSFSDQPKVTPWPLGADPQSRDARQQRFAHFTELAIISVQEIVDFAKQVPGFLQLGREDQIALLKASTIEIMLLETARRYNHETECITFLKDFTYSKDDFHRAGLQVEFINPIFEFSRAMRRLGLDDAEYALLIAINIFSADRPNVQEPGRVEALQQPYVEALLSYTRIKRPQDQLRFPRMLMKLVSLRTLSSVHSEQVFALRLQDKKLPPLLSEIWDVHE
# [9] = biological target: T5, Nuclear receptor ROR-gamma (Homo sapiens, UniProt P51449); assay: (§1) Transrepression of recombinant human GAL4-DBD fused RORgammat LBD expressed in HEK293 cells after 20 hrs by luciferase reporter gene assay; format: cell-based
# T5 sequence (P51449 whole entry): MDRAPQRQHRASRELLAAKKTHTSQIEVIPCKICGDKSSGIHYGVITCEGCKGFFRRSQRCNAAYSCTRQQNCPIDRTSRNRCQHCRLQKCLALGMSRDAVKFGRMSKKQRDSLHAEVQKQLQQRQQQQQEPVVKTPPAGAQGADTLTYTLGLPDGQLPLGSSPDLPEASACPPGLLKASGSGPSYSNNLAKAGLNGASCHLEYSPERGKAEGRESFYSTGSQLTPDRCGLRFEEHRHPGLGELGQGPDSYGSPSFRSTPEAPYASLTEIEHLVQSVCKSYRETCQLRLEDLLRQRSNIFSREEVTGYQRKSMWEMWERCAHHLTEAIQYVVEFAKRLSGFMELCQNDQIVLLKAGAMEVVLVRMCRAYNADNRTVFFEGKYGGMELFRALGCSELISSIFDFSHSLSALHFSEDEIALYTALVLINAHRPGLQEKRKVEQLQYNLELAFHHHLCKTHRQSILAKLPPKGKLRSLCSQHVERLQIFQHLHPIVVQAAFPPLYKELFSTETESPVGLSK
# [10] = biological target: T6, Nuclear receptor ROR-gamma (Homo sapiens) (UniProt P51449); assay: as §1; format: cell-based
# T6 sequence (whole entry): T5 sequence (P51449 whole entry)
# [11] = biological target: T7, Nuclear receptor ROR-gamma (Mus musculus) (UniProt P51450); assay: (§2) Transrepression of recombinant mouse GAL4-DBD fused RORgammat LBD expressed in HEK293 cells after 20 hrs by luciferase reporter gene assay; format: cell-based
# T7 sequence (whole entry): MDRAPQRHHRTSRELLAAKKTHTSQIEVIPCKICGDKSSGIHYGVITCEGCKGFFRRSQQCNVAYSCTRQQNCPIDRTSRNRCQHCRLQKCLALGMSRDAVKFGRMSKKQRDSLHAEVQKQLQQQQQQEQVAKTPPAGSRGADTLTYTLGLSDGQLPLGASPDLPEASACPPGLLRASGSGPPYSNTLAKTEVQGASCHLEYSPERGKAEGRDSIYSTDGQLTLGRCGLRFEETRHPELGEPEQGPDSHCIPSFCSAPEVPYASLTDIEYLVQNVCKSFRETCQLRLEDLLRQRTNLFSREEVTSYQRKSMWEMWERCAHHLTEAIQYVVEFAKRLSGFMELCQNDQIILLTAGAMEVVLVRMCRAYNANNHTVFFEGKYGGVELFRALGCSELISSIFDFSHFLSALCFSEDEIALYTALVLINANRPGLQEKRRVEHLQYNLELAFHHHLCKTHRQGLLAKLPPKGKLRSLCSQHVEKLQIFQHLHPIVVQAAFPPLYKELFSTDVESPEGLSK
# [12] = biological target: T8, Nuclear receptor ROR-gamma (Mus musculus, UniProt P51450); assay: as §2; format: cell-based
# T8 sequence (P51450 whole entry): T7 sequence (whole entry)
# [13] = biological target: T8, Nuclear receptor ROR-gamma; assay: Transrepression of RORgammat in anti-CD3/CD28 stimulated C57BL/6 mouse CD4-positive T cells assessed as suppression of T cell differentiation to Th17 cells by measuring reduction in IL-17A level after 4 days by ELISA
# [14] = biological target: T5, Nuclear receptor ROR-gamma; assay: Displacement of [3H]-Digoxin from recombinant human GST-fused RORgammat LBD after 1 to 4 hrs by scintillation counting method
smiles,measurement,setting,value
CCS(=O)(=O)c1ccc(CC(=O)Nc2ccc(C(C)(C)C(=O)Nc3ccc(F)cc3)cc2)cc1,remaining at 2 h,[1],75%
same,solubility thermodynamic,[2],31 µM
same,EC50,[3],> 30 µM
same,IC50,[4],> 10 µM
same,solubility thermodynamic,[5],39 µM
same,remaining at 2 h,[6],70%
same,IC50,[7],> 10 µM
same,EC50,[8],> 30 µM
same,IC50,[9],0.033 µM
same,Efficacy,[10],93%
same,Efficacy,[11],78%
same,IC50,[12],0.55 µM
same,IC50,[13],1.1 µM
same,IC50,[14],< 0.03 µM
